These results are taken from patent US5215964A, “Peptides useful in regulating the immune and nervous systems” (Immunobiology Research Institute, Inc., priority 1991, dated 1993).

By amount remaining is commonly meant the share of the starting amount still present when the sample was taken.

One data set in a line: in vitro. To be noted: rat, real gastrointestinal fluid or homogenate, pH 5.5.
The test system of the next data set is CEM T cell line. The data set can be described thus: Cyclic GMP assay, CEM cell line. To be noted: positive = cyclic GMP greater than 2 standard deviations above parallel negative control; peptide 1, 10, 100 μg/mL. Format: cell-based, human.
The test system of a further data set is γ TP receptor. The data set can be described thus: Neuromuscular (electromyographic) assay. The format is in vivo. To be noted: i.v. or s.c. in mice, electromyography 18 hours after administration. The protocol: The neuromuscular assay is performed to determine the effect, if any, of different peptides and dosages of peptides on the γ TP receptor according to the invention. This assay is carried out as follows. Various doses of a selected peptide of this invention, prepared as described in the preceding examples, are dissolved in normal saline and injected either intravenously (i.v.) or subcutaneously (s.c.) into mice (or other selected laboratory animals). The electromyographic assay is performed according to G. Goldstein et al, J. Jeurol. and Neurosurg. Physchiat., 31:453-459 (1968) 18 hours after administration of the peptide.
Mice of either sex, weighing […], are anesthetized with 150 μl of 5% sodium pentobarbital (Abbott Laboratories, Chicago, Ill.). The nerve is stimulated with a Grass S-48 stimulator and a Grass SIV-5A stimulus isolation unit (Grass Instrument Co., Quincy, Mass.) and the electromyographic response is recorded with a Tektronix storage oscilloscope-5111 coupled to a 5A21N differential amplifier and a 5B10N time base (Tektronix, Beaverton, Oreg.).
Groups of five or more mice are used for each experiment. […] The mean, standard deviation and statistical significance of differences between experimental animals and controls are assessed by one-way analysis of variance based on ratio. […]

A further data set relates to MOLT-4 T cell line. The data set can be described thus: Cyclic GMP assay, MOLT-4 cell line. The conditions noted are these: positive = cyclic GMP greater than 2 standard deviations above parallel negative control; peptide 1, 10, 100 μg/mL. The format is cell-based, human. The text has this: This assay measures the ability of a peptide of this invention to bind to the cell membrane receptor of the intact MOLT-4 cell and selectively stimulate production of cyclic GMP, as does human thymopoietin.
The MOLT-4 cell line was obtained from the American Type Culture Collection of Rockville, Md. MOLT-4 cells were freshly seeded and grown for 3 days with harvesting as described in T. Audhya et al, Arch. Biochem Biophys., 234: 167-177 (1984). The cells were washed 3 times in PBS and resuspended in RPMI 1640 at a concentration of […]; cells/ml and were allowed to equilibrate at 37° C. for 30 minutes before the addition of the test pentapeptides or control peptides, in 25 μl to yield a final concentration of 1, 10, and 100 μg/mL. The incubation was allowed to proceed in a shaking water bath for 4-5 minutes and was then terminated by addition of 1 ml ice-cold TCA (10 percent in H2 O).
The cells in TCA were homogenized and sonicated to release cyclic nucleotide. The suspension was centrifuged at 3000×g for 20 minutes at 4° C. The resulting precipitate was dissolved in 0.1N NaOH to determine the protein content. […]
A threshold activity was determined for each peptide tested. […] Test results were considered positive if the level of cyclic GMP was greater than […] that determined for the parallel negative control.

Data set [1] can be described thus: Enzymatic stability, duodenum in diffusion cell. The conditions noted are these: for intact peptide: rat duodenum, phosphate buffer pH 5.5, 1 mg/mL.
Method: (§1) A rat duodenum was opened and attached to a 3.5 mL diffusion cell [Crownglass, N.J.] with buffer in both chambers. The selected test peptide in phosphate buffer (pH 5.5) was applied to both the cells to a final concentration of 1 mg/mL, and samples were taken at 0, 2 and 4 hours. The aliquots were subjected to high performance liquid chromatography (HPLC) with ultraviolet detection at 220 nm. The solvent system for thymopentin was phosphate buffer and methanol.

Ends that are not written are not given here. Peptide text beside a SMILES is read from it. * marks the point of attachment. Decanoyl = CCCCCCCCCC(=O)*

Method for in vitro: as §1

As for “Ac-RPDPF-NH2 [Acetyl-Arg-Pro-Asp-Pro-Phe-NH2]”, in “in vitro”, the share remaining at 2 h, 1 mg/mL is around 100% and the fraction remaining at 4 h, 1 mg/mL was around 90%.
As for “Ac-RPTPY-NH2 [Acetyl-Arg-Pro-Thr-Pro-Tyr-NH2]”, in the data set with CEM T cell line, the “inducing increased cGMP levels in the human CEM T cell line (α)” value (“inducing increased cGMP levels … (α)” for short) was “positive”.
For `CCCCCCCCCC(=O)N[C@@H](CCCNC(=N)N)C(=O)N1CCC[C@H]1C(=O)N[C@@H](CC(=O)O)C(=O)N1CCC[C@H]1C(=O)N[C@@H](Cc1ccccc1)C(N)=O` [Decanoyl-Arg-Pro-Asp-Pro-Phe-NH2] (Decanoyl-RPDPF-NH2), in the data set with γ TP receptor, the “thymopoietin/thymopentin-like results on the neuromuscular assay (γ)” value is given as “γ-positive”. Besides, in the data set with MOLT-4 T cell line, the “inducing increased cGMP levels in the human MOLT-4 T cell line (β)” value is “positive”. Moreover, in the data set with CEM T cell line, the “inducing increased cGMP levels … (α)” value is recorded as “positive”.
On to “Ac-RPTPF-NH2 [Acetyl-Arg-Pro-Thr-Pro-Phe-NH2]”, for which the “inducing increased cGMP levels … (α)” value in the data set on CEM T cell line was “positive”.
For RKDVY [TP-5, thymopentin], the intact peptide is 100% in data set [1] (0 hours) and “negligible” in data set [1] (4 hours). Further, the share remaining at 2 h, 1 mg/mL in data set [1] (rat, rat duodenum mounted in a diffusion cell, pH 5.5) turned out to be 20%.
